Source: patent US11286263B2, “Macrocyclic fluorine substituted indole derivatives” (The Broad Institute, Inc., priority 2017, dated 2022)
Structures can show the parent of a compound that is named as a salt. Where two headings read alike, the source gives them in different places.

Assays:
SK-BR-3 = assay: Antiproliferation assay SK-BR-3 (Assay 7); format: cell-based; details: SK-BR-3 cells, CellTiter-Glo, single determinations, read-out: IC50 Antiproli SK-BR-3
Experimental: (§1) Assessment of the Anti-Proliferative Effect of Compounds in Different Cell Lines
(§2) The impact of compounds on the proliferation of different cell lines was assessed using the CellTiter-Glo® Luminescent Cell Viability reagent from Promega (G7573).
(§3) In parallel, cells were plated in a reference (day 0) plate for time zero determination.
(§4) Rim wells were excluded. The cells were incubated for 72 h hours in a humidified incubator at 37° C. The day 0 plate was measured by adding 30 μL/well of CTG solution (CellTiter-Glo® Luminescent Cell Viability reagent, Promega G7573) to time zero wells in the reference plate followed by a 10 minutes incubation and luminescence reading at 0.1 ms. using the PHERAstar FS microplate reader (BMG Labtech).
(§5) After 72 h incubation, the treated plates were measured in the same way as the day 0 plate mentioned above.

A2058 = assay: Antiproliferation assay A2058 (Assay 7); format: cell-based; details: Homo sapiens; A2058 cells, 72 h, CellTiter-Glo; single determinations; read-out: IC50 Antiproli A2058
Experimental: as §1, §2, §3, §4, §5

NCI-H23 = assay: Antiproliferation assay NCI-H23 (Assay 7); format: cell-based; details: NCI-H23 cells, CellTiter-Glo, single determinations, read-out: IC50 Antiproli NCI-H23
Experimental: as §1, §2, §3, §4, §5

BxPC-3 = assay: Antiproliferation assay BxPC-3 (Assay 7); format: cell-based; details: Homo sapiens; BxPC-3 cells, 72 h, CellTiter-Glo; single determinations; read-out: IC50 Antiproli BxPC-3
Experimental: as §1, §2, §3, §4, §5

Compound	IC50 (SK-BR-3; Homo sapiens, SK-BR-3, 72 h) [µM]	IC50 (A2058) [µM]	IC50 (NCI-H23; Homo sapiens, NCI-H23, 72 h) [µM]	other results
Cc1c2c(nn1C)COCCCCn1c(C(=O)O)c(CCCOc3cccc4ccccc34)c3ccc(F)c-2c31 (racemic) [Example 2, (rac)-4-fluoro-2,3-dimethyl-7-[3-(naphthalen-1-yloxy)propyl]-2,10,11,12,13,15-hexahydro-pyrazolo[4′,3′:9,10][1,6]oxazacycloundecino[8,7,6-hi]indole-8-carboxylic acid]	7.07	> 33	7.56	IC50 (SK-BR-3; 72 h, listed as 02): 6.85 µM; IC50 (NCI-H23; 72 h, listed as 02): 9.56 µM
Cc1c2c(nn1C)COCCCCn1c(C(=O)O)c(CCCOc3cccc4ccccc34)c3ccc(F)c-2c31 (single isomer, unassigned; enantiomer 1) [Example 3, 4-fluoro-2,3-dimethyl-7-[3-(naphthalen-1-yloxy)propyl]-2,10,11,12,13,15-hexahydropyrazolo-[4′,3′:9,10][1,6]oxazacycloundecino[8,7,6-hi]indole-8-carboxylic acid-N-ethylethanamine salt (enantiomer 1)]	9.5	> 33	6.94	–
CCc1c2c(nn1C)COCCCCn1c(C(=O)O)c(CCCOc3cccc4cc(F)ccc34)c3ccc(F)c-2c31 (single isomer, unassigned; enantiomer 1) [Example 22, 3-ethyl-4-fluoro-7-{3-[(6-fluoronaphthalen-1-yl)oxy]propyl}-2-methyl-2,10,11,12,13,15-hexahydropyrazolo[4′,3′:9,10][1,6]oxazacycloundecino[8,7,6-hi]indole-8-carboxylic acid-N-ethylethanamine salt (enantiomer 1)]	–	–	–	IC50 (BxPC-3): 23.5 µM
(rac)-1-(3-((2,3-dihydro-1H-inden-4-yl)oxy)propyl)-12-ethyl-13-fluoro-11-methyl-4,5,6,7,9,11-hexahydropyrazolo[4′,3′:9,10][1]oxa[6]azacycloundecino[8,7,6-hi]indole-2-carboxylic acid [Example 30]	–	–	–	IC50 (SUDHL10): 1.3 µM; IC50 (SUDHL5): 1.1 µM
